Each structure is given as a SMILES string. pIC50: −log10 of the molar value. In brackets after ≈: the same amount, converted by molar mass.

Series [1] concerns the target T1, Bifunctional epoxide hydrolase 2 (Homo sapiens, UniProt P34913).
T1 sequence (P34913 whole entry): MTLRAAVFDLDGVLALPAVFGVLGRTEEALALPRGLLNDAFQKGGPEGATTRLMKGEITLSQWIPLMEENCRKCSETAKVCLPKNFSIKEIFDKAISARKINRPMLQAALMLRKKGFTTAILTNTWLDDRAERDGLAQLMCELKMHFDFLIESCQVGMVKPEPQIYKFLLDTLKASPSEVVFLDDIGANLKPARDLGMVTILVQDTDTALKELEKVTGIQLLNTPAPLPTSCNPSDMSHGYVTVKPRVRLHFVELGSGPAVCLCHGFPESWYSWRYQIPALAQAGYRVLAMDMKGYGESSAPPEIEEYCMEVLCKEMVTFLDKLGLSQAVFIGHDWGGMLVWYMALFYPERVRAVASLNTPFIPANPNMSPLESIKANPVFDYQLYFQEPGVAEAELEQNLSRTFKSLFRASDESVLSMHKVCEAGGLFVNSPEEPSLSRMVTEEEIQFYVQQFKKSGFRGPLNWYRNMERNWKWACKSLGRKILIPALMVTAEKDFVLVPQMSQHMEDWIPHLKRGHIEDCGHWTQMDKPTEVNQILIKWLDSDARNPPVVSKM

For series [2] the following is noted: buffer, 18 h, pH 7.4.
In the next series the test system is Pseudomonas aeruginosa. In words: microbe, parasite or virus in culture.
The test system of the next series is Proteus vulgaris. Briefly: microbe, parasite or virus in culture.
The next series relates to Proteus mirabilis. Briefly: microbe, parasite or virus in culture.
Another series deals with Klebsiella pneumoniae. Briefly: microbe, parasite or virus in culture.
Another series has as its system Escherichia coli. Briefly: microbe, parasite or virus in culture. To be noted: K-12.
For the next series, the system named is Burkholderia cepacia. Briefly: microbe, parasite or virus in culture.
The next series relates to Bacillus subtilis. In words: microbe, parasite or virus in culture.
A further series deals with Acinetobacter. In words: microbe, parasite or virus in culture.
The next series deals with Streptococcus pneumoniae. In words: microbe, parasite or virus in culture.
A further series deals with Streptococcus pyogenes. Briefly: microbe, parasite or virus in culture.
In series [3] the test system is Staphylococcus aureus. Briefly: microbe, parasite or virus in culture. To be noted: NRS70.
The test system of series [4] is Staphylococcus aureus. In words: microbe, parasite or virus in culture. As to conditions: ATCC 29213.
A further series concerns Enterococcus faecalis. In words: microbe, parasite or virus in culture.
For the next series, the system named is Bacillus anthracis. In words: microbe, parasite or virus in culture. To be noted: Sterne.
Series [5] concerns Mycobacterium tuberculosis. Briefly: microbe, parasite or virus in culture. As to conditions: H37Rv, 168 h.

As a reminder, the pIC50 is the negative decadic logarithm of the IC50, by convention in mol/L. Higher therefore signals a small IC50. The term solubility denotes how much of the substance goes into solution per volume. A higher solubility goes with a readily soluble substance. Take `Cc1cc(NC(=O)NC23CC4CC(CC(C4)C2)C3)on1`: in series [1], the negative-log IC50 (pIC50) was 6.93. In series [2], this compound displayed a solubility of 5.5 µg/mL (≈ 20 µM). Besides, the MIC in the series with Pseudomonas aeruginosa was more than 200 µg/mL; against Proteus vulgaris, more than 200 µg/mL; against Proteus mirabilis, more than 200 µg/mL; against Klebsiella pneumoniae, more than 200 µg/mL; against Escherichia coli, 200 µg/mL (≈ 726 µM); in the series on Burkholderia cepacia, 100 µg/mL (≈ 363 µM). In addition, the MIC against Bacillus subtilis is more than 200 µg/mL; in the series on Acinetobacter, more than 200 µg/mL; against Streptococcus pneumoniae it was more than 200 µg/mL; in the series on Streptococcus pyogenes, more than 200 µg/mL; with Staphylococcus aureus [3] it was more than 200 µg/mL; with Staphylococcus aureus [4], 200 µg/mL (≈ 726 µM). Further, the figures for the MIC (in the series with Enterococcus faecalis; against Bacillus anthracis; in [5]) were 100 µg/mL (≈ 363 µM), more than 200 µg/mL and 12.5 µg/mL (≈ 45.4 µM), respectively.

Compound `O=C(Nc1nnc(C2CCC2)o1)NC12CC3CC(CC(C3)C1)C2` showed a pIC50 in series [1] of 6.62. Besides, the solubility in series [2] was 10.5 µg/mL (≈ 33.2 µM). Further, the MIC against Pseudomonas aeruginosa, in the series on Proteus vulgaris, in the series on Proteus mirabilis, with Klebsiella pneumoniae, with Escherichia coli and in the series with Burkholderia cepacia was more than 200 µg/mL each time. Also, the MIC against Bacillus subtilis was 50 µg/mL (≈ 158 µM); with Acinetobacter it was more than 200 µg/mL; with Streptococcus pneumoniae, 100 µg/mL (≈ 316 µM); against Streptococcus pyogenes, 100 µg/mL (≈ 316 µM); with Staphylococcus aureus [3], 50 µg/mL (≈ 158 µM); against Staphylococcus aureus [4] it was 50 µg/mL (≈ 158 µM). Moreover, the values for the MIC (with Enterococcus faecalis; against Bacillus anthracis; in series [5]) were 100 µg/mL (≈ 316 µM), 25 µg/mL (≈ 79 µM) and 12.5 µg/mL (≈ 39.5 µM), respectively.

For the compound `COc1ccc(NS(=O)(=O)c2ccc(NC(=O)NC34CC5CC(CC(C5)C3)C4)cc2)nn1`, the negative logarithm of the IC50 (pIC50) in series [1] is 8.15. Besides, the solubility in series [2] is 14.1 µg/mL (≈ 30.8 µM). For the same compound, the MIC is more than 200 µg/mL with Pseudomonas aeruginosa; 200 µg/mL (≈ 437 µM) with Proteus vulgaris; 100 µg/mL (≈ 219 µM) against Proteus mirabilis; more than 200 µg/mL with Klebsiella pneumoniae; 200 µg/mL (≈ 437 µM) with Escherichia coli; 200 µg/mL (≈ 437 µM) with Burkholderia cepacia. Besides, the MIC in the series with Bacillus subtilis was 200 µg/mL (≈ 437 µM); in the series with Acinetobacter, more than 200 µg/mL; in the series on Streptococcus pneumoniae, 100 µg/mL (≈ 219 µM); against Streptococcus pyogenes it was more than 200 µg/mL; against Staphylococcus aureus [3] it was 100 µg/mL (≈ 219 µM); against Staphylococcus aureus [4], 200 µg/mL (≈ 437 µM). Further, the MIC was 200 µg/mL (≈ 437 µM) against Enterococcus faecalis, 50 µg/mL (≈ 109 µM) against Bacillus anthracis and 25 µg/mL (≈ 54.6 µM) in series [5].

As for `O=C(Nc1ccncc1)NC12CC3CC(CC(C3)C1)C2`, the negative-log IC50 (pIC50) in series [1] was 6.76. In [2], this compound displayed a solubility of 7 µg/mL (≈ 25.8 µM). In addition, the MIC with Pseudomonas aeruginosa, in the series on Proteus vulgaris, in the series on Proteus mirabilis, in the series with Klebsiella pneumoniae, in the series with Escherichia coli and against Burkholderia cepacia was more than 200 µg/mL in each case. Moreover, the MIC against Bacillus subtilis, in the series on Acinetobacter, against Streptococcus pneumoniae, in the series on Streptococcus pyogenes, in the series with Staphylococcus aureus [3] and against Staphylococcus aureus [4] was more than 200 µg/mL throughout. The MIC in the series with Enterococcus faecalis was more than 200 µg/mL; with Bacillus anthracis, more than 200 µg/mL; in [5], 18 µg/mL (≈ 66.3 µM).

Compound `Cc1ccnc(NS(=O)(=O)c2ccc(NC(=O)NC34CC5CC(CC(C5)C3)C4)cc2)n1` showed a negative logarithm of the IC50 (pIC50) in series [1] of 7.77. Further, the solubility in series [2] was 2.5 µg/mL (≈ 5.66 µM). The MIC in the series with Pseudomonas aeruginosa, in the series on Proteus vulgaris, in the series on Proteus mirabilis, in the series on Klebsiella pneumoniae, against Escherichia coli and against Burkholderia cepacia was more than 200 µg/mL throughout. The MIC in the series with Bacillus subtilis is more than 200 µg/mL; in the series on Acinetobacter, 100 µg/mL (≈ 226 µM); with Streptococcus pneumoniae, more than 200 µg/mL; against Streptococcus pyogenes, more than 200 µg/mL; in the series with Staphylococcus aureus [3], more than 200 µg/mL; in the series with Staphylococcus aureus [4] it was more than 200 µg/mL. Also, the MIC in the series on Enterococcus faecalis was more than 200 µg/mL; against Bacillus anthracis, 100 µg/mL (≈ 226 µM); in [5] it was more than 25 µg/mL.

The values are drawn from ChEMBL document CHEMBL2390858, “Design, synthesis and anti-tuberculosis activity of 1-adamantyl-3-heteroaryl ureas with improved in vitro pharmacokinetic properties” (Bioorg Med Chem, 2013).
